Patent publication US9737509B1, “Antimicrobial compositions, methods of use, and methods of treatment of infections” (University of South Florida, priority 2015, dated 2017)
Values after ≈ are worked out from the molar mass of the structure shown.

Experiments:
[1] = tested on: L. donovani axenic amastigotes; test: L. donovani axenic amastigote proliferation, colorimetric assay; type: cell-based, Leishmania donovani; conditions: for activity in the axenic amastigote L. donovani assay (in words): screening / confirmation; for IC50: Leishmania donovani, L. donovani axenic amastigotes
Protocol: As part of an ongoing search for potential treatments for leishmaniasis, a screening campaign against available compounds was conducted using axenic amastigotes of Leishmania donovani, a protozoan that is known to cause visceral leishmaniasis (VL). […] Prior to taking on the development of novel analogs, we sought to synthesize an analog to confirm that the activity was readily reproducible. […] As a byproduct, compound 2a, which arose from the hydrolysis of the product amide to the corresponding carboxylic acid (not shown) was also isolated and evaluated (vide infra).
(§1) With a source of these compounds in hand, their activity against Leishmania donovani cells was evaluated in two different assays. L. donovani axenic amastigotes were generated from promastigotes and maintained in an appropriate medium such that their proliferation could be evaluated using a colorimetric assay. Additionally, macrophages were plated into a 96-well plate and a medium containing L. donovani was added and allowed to infect the macrophage cells. Subsequent addition of the compound to be evaluated was added to the wells prior to incubation and evaluation. Finally, a counterscreen for cytotoxicity was conducted using a J774 murine mouse cell line.

[2] = Counterscreen for cytotoxicity; type: cell-based; conditions: mouse, J774 cells (murine macrophage cell line)
Protocol: as §1

[3] = tested on: L. donovani infected macrophage cells; test: L. donovani infected macrophage assay; type: cell-based; conditions: Leishmania donovani, macrophages infected with L. donovani
Protocol: as §1

## Cc1nn(-c2ccc(C(N)=O)c(N[C@H]3CC[C@H](O)CC3)c2)c2c1C(=O)CC(C)(C)C2 [Compound 1, reference compound]
[1]
  activity in the axenic amastigote L. donovani assay (in words): most active

## COCCCNc1cc(-n2nc(C)c3c2CC(C)(C)CC3=O)ccc1C(N)=O [Compound 2]
[1]
  IC50: 0.646 µg/mL (≈ 1.68 µM)
  activity in the axenic amastigote L. donovani assay (in words): equally active as 1
[2]
  IC50: 3.52 µg/mL (≈ 9.16 µM)
[3]
  IC50: 0.879 µg/mL (≈ 2.29 µM)

## COCCCNc1cc(-n2nc(C)c3c2CN(Cc2ccccc2)CC3=O)ccc1C(N)=O [Compound 3a]
[1]
  IC50: 2.29 µg/mL (≈ 5.11 µM)
[2]
  IC50: > 50 µg/mL
[3]
  IC50: 6.33 µg/mL (≈ 14.1 µM)

## COCCCNc1cc(-n2nc(C)c3c2CNCC3=O)ccc1C(N)=O [Compound 3b]
[1]
  IC50: 3.9 µg/mL (≈ 10.9 µM)
[2]
  IC50: > 50 µg/mL
[3]
  IC50: > 10 µg/mL

## COCCCNc1cc(-n2nc(C)c3c2CN(C(C)=O)CC3=O)ccc1C(N)=O [Compound 3c]
[1]
  IC50: 13.9 µg/mL (≈ 34.8 µM)
[2]
  IC50: > 50 µg/mL
[3]
  IC50: 1.06 µg/mL (≈ 2.65 µM)

## CCC(=O)N1CC(=O)c2c(C)nn(-c3ccc(C(N)=O)c(NCCCOC)c3)c2C1 [Compound 3d]
[1]
  IC50: 6.42 µg/mL (≈ 15.5 µM)
[2]
  IC50: > 50 µg/mL
[3]
  IC50: 3.54 µg/mL (≈ 8.55 µM)

## COCCCNc1cc(-n2nc(C)c3c2CN(C(=O)C(C)C)CC3=O)ccc1C(N)=O [Compound 3e]
[1]
  IC50: 1.9 µg/mL (≈ 4.45 µM)
[2]
  IC50: 37.3 µg/mL (≈ 87.3 µM)
[3]
  IC50: 3.54 µg/mL (≈ 8.28 µM)

## COCCCNc1cc(-n2nc(C)c3c2CN(C(=O)COC)CC3=O)ccc1C(N)=O [Compound 3f]
[1]
  IC50: 4.45 µg/mL (≈ 10.4 µM)
[2]
  IC50: > 50 µg/mL
[3]
  IC50: 3.57 µg/mL (≈ 8.31 µM)

## COCCCNc1cc(-n2nc(C)c3c2CN(C(=O)C2CCCC2)CC3=O)ccc1C(N)=O [Compound 3g]
[1]
  IC50: 2.99 µg/mL (≈ 6.59 µM)
[2]
  IC50: > 50 µg/mL
[3]
  IC50: 1.52 µg/mL (≈ 3.36 µM)

## COCCCNc1cc(-n2nc(C)c3c2CN(C(=O)c2ccc(C)cc2)CC3=O)ccc1C(N)=O [Compound 3h]
[1]
  IC50: 2.6 µg/mL (≈ 5.48 µM)
[2]
  IC50: 26.3 µg/mL (≈ 55.3 µM)
[3]
  IC50: 1.75 µg/mL (≈ 3.69 µM)

## COCCCNc1cc(-n2nc(C)c3c2CN(S(C)(=O)=O)CC3=O)ccc1C(N)=O [Compound 3i]
[1]
  IC50: > 20 µg/mL
[2]
  IC50: 25.5 µg/mL (≈ 58.6 µM)
[3]
  IC50: > 5.38 µg/mL

## COCCCNc1cc(-n2nc(C)c3c2CN(C(=O)NCc2ccccc2)CC3=O)ccc1C(N)=O [Compound 3j]
[1]
  IC50: > 20 µg/mL
[2]
  IC50: > 50 µg/mL
[3]
  IC50: > 10 µg/mL

## COCCCNc1cc(-n2nc(C)c3c2CN(C(N)=O)CC3=O)ccc1C(N)=O [Compound 3k]
[1]
  IC50: > 20 µg/mL
[2]
  IC50: > 50 µg/mL
[3]
  IC50: > 10 µg/mL

## COCCCNc1cc(NC2CC(C)(C)Cc3ncccc32)ccc1C(N)=O (centres unmarked) [Compound 6]
[1]
  IC50: 2.55 µg/mL (≈ 6.67 µM)
[2]
  IC50: 6.75 µg/mL (≈ 17.6 µM)
[3]
  IC50: 5.38 µg/mL (≈ 14.1 µM)

## Cc1nn(-c2ccc3c(N)ncnc3c2)c2c1C(=O)CC(C)(C)C2 [Compound 9c]
[1]
  IC50: 2.42 µg/mL (≈ 7.53 µM)
[2]
  IC50: > 50 µg/mL
[3]
  IC50: 1.33 µg/mL (≈ 4.15 µM)

## COCCCNc1cc(-n2nc(C)c3c2CCCC3=O)ccc1C(N)=O [Compound 10]
[1]
  IC50: 2.65 µg/mL (≈ 7.45 µM)
[2]
  IC50: 12.6 µg/mL (≈ 35.2 µM)
[3]
  IC50: 0.65 µg/mL (≈ 1.82 µM)
